Results: patent publication US9051330B2, “Dithiolopyrrolones with therapeutic activity” (Welichem Biotech Inc., priority 2002, dated 2015)
Like-named read-outs stand apart in the source and are kept apart here.

How the values were obtained:
Type in all cases: cell-based, human
Ovcar-3 cell line = test: NCI standard anti-proliferative test, ovarian cancer Ovcar-3 cells
Text: (§1) These assays are commonly used by those skilled in the art and are accepted as indicative of antiproliferative activity in mammals. The antiproliferative activities of the compounds of the invention have been determined in cell cultures of human ovarian cancer, using a standard anti-proliferative test of the US National Cancer Institute (NCI). [Monks, A. et al., J. Natl. Cancer Inst. 83(11): 757-766, 1991].
The novel compound had activity against 56 cancer cell lines of a wide range of major cancers. (Table 1a).

H460 = test: NCI standard anti-proliferative test, H460 cells
CCRF-CEM = test: NCI anti-proliferative test, Leukemia CCRF-CEM
HL-60(TB) = test: NCI anti-proliferative test, Leukemia HL-60(TB)
K-562 = test: NCI anti-proliferative test, Leukemia K-562
MOLT-4 = test: NCI anti-proliferative test, Leukemia MOLT-4
RPMI-8226 = test: NCI anti-proliferative test, Leukemia RPMI-8226
SR = test: NCI anti-proliferative test, Leukemia SR
A549/ATCC = test: NCI anti-proliferative test, Non-Small Cell Lung Cancer A549/ATCC
EKVX = test: NCI anti-proliferative test, Non-Small Cell Lung Cancer EKVX
HOP-62 = test: NCI anti-proliferative test, Non-Small Cell Lung Cancer HOP-62
HOP-92 = test: NCI anti-proliferative test, Non-Small Cell Lung Cancer HOP-92
NCI-H226 = test: NCI anti-proliferative test, Non-Small Cell Lung Cancer NCI-H226
NCI-H23 = test: NCI anti-proliferative test, Non-Small Cell Lung Cancer NCI-H23
NCI-H322M = test: NCI anti-proliferative test, Non-Small Cell Lung Cancer NCI-H322M
NCI-H522 = test: NCI anti-proliferative test, Non-Small Cell Lung Cancer NCI-H522
COLO 205 = test: NCI anti-proliferative test, Colon Cancer COLO 205
HCC-2998 = test: NCI anti-proliferative test, Colon Cancer HCC-2998
HCT-116 = test: NCI anti-proliferative test, Colon Cancer HCT-116
HCT-15 = test: NCI anti-proliferative test, Colon Cancer HCT-15
HT29 = test: NCI anti-proliferative test, Colon Cancer HT29
KM12 = test: NCI anti-proliferative test, Colon Cancer KM12
SW-620 = test: NCI anti-proliferative test, Colon Cancer SW-620
SF-268 = test: NCI anti-proliferative test, CNS Cancer SF-268
SF-295 = test: NCI anti-proliferative test, CNS Cancer SF-295
SF-539 = test: NCI anti-proliferative test, CNS Cancer SF-539
SNB-19 = test: NCI anti-proliferative test, CNS Cancer SNB-19
U251 = test: NCI anti-proliferative test, CNS Cancer U251
LOX IMVI = test: NCI anti-proliferative test, Melanoma LOX IMVI
MALME-3M = test: NCI anti-proliferative test, Melanoma MALME-3M
M14 = test: NCI anti-proliferative test, Melanoma M14
SK-MEL-2 = test: NCI anti-proliferative test, Melanoma SK-MEL-2
SK-MEL-28 = test: NCI anti-proliferative test, Melanoma SK-MEL-28
SK-MEL-5 = test: NCI anti-proliferative test, Melanoma SK-MEL-5
UACC-257 = test: NCI anti-proliferative test, Melanoma UACC-257
UACC-62 = test: NCI anti-proliferative test, Melanoma UACC-62
IGROV1 = test: NCI anti-proliferative test, Ovarian Cancer IGROV1
Text: as §1

OVCAR-5 = test: NCI anti-proliferative test, Ovarian Cancer OVCAR-5
Text: as §1

OVCAR-8 = test: NCI anti-proliferative test, Ovarian Cancer OVCAR-8
Text: as §1

786-0 = test: NCI anti-proliferative test, Renal Cancer 786-0
A498 = test: NCI anti-proliferative test, Renal Cancer A498
ACHN = test: NCI anti-proliferative test, Renal Cancer ACHN
CAKI-1 = test: NCI anti-proliferative test, Renal Cancer CAKI-1
RXF 393 = test: NCI anti-proliferative test, Renal Cancer RXF 393
SN12C = test: NCI anti-proliferative test, Renal Cancer SN12C
TK-10 = test: NCI anti-proliferative test, Renal Cancer TK-10
UO-31 = test: NCI anti-proliferative test, Renal Cancer UO-31
PC-3 = test: NCI anti-proliferative test, Prostate Cancer PC-3
DU-145 = test: NCI anti-proliferative test, Prostate Cancer DU-145
MCF7 = test: NCI anti-proliferative test, Breast Cancer MCF7
NCI/ADR-RES = test: NCI anti-proliferative test, Breast Cancer NCI/ADR-RES
MDA-MB-231/ATCC = test: NCI anti-proliferative test, Breast Cancer MDA-MB-231/ATCC
HS 578T = test: NCI anti-proliferative test, Breast Cancer HS 578T
MDA-MB-435 = test: NCI anti-proliferative test, Breast Cancer MDA-MB-435
BT-549 = test: NCI anti-proliferative test, Breast Cancer BT-549
T-47D = test: NCI anti-proliferative test, Breast Cancer T-47D
[1] = ovarian cancer cells Ovcar-3, comparison with XN3
[2] = cancer cell line H460, read-out: IC50 H460

With `COc1ccc(-n2c3cssc-3c(NC(=O)Cc3cccs3)c2=O)c(OC)c1` [Compound 0037] the IC50 (Ovcar-3 cell line; [1]) was 0.071 µM.
For `COc1ccc(-n2c3cssc-3c(NC(=O)c3ccc(C(F)(F)F)cc3)c2=O)c(OC)c1` [BLI-093], the IC50 (Ovcar-3 cell line; [1]) was 0.054 µM.
`COc1ccc(-n2c3cssc-3c(NC(=O)c3cc(F)cc(F)c3)c2=O)c(OC)c1` [Compound R3] showed an IC50 (Ovcar-3 cell line; [1]) of 0.078 µM.
Work on `COc1ccc(-n2c3cssc-3c(NC(=O)c3ccc(F)cc3)c2=O)c(OC)c1` [WBL-018] yielded an IC50 (Ovcar-3 cell line; [1]) of 0.07 µM.
`COc1ccc(-n2c3cssc-3c(NC(=O)c3ccc([N+](=O)[O-])cc3)c2=O)c(OC)c1` [Compound 0038] showed an IC50 (Ovcar-3 cell line; [1]) of 0.068 µM.
With `COc1ccc(-n2c3cssc-3c(NC(=O)c3cc(C(F)(F)F)cc(C(F)(F)F)c3)c2=O)c(OC)c1` [Compound 0058] the IC50 (Ovcar-3 cell line; Ovarian Cancer, OVCAR-3, 56 cell line panel) was 0.03 µM, the IC50 (Ovcar-3 cell line; [1]) was 0.034 µM and the IC50 (H460; Non-Small Cell Lung Cancer, NCI-H460, 56 cell line panel, read-out: IC50) was 0.26 µM. For the same compound, the IC50 (CCRF-CEM) was under 0.01 µM, the IC50 (HL-60(TB)) was 0.019 µM and the IC50 (K-562) was 0.019 µM. For the same compound, the IC50 (MOLT-4) was 0.15 µM, the IC50 (RPMI-8226) was under 0.01 µM and the IC50 (SR) was 0.02 µM. For the same compound, the IC50 (A549/ATCC) was 0.42 µM, the IC50 (EKVX) was 0.13 µM and the IC50 (HOP-62) was 0.13 µM. It also gave an IC50 (HOP-92) of 0.18 µM, an IC50 (NCI-H226) of 0.27 µM and an IC50 (NCI-H23) of 0.21 µM. The IC50 (NCI-H322M) was 8.56 µM, the IC50 (NCI-H522) was 0.19 µM and the IC50 (COLO 205) was 0.15 µM. It also gave an IC50 (HCC-2998) of 0.11 µM, an IC50 (HCT-116) of 0.016 µM and an IC50 (HCT-15) of 0.02 µM. The IC50 (HT29) was 0.05 µM, the IC50 (KM12) was 2.97 µM and the IC50 (SW-620) was 0.034 µM. It also gave an IC50 (SF-268) of 0.14 µM, an IC50 (SF-295) of 0.23 µM and an IC50 (SF-539) of 0.18 µM. For the same compound, the IC50 (SNB-19) was 0.23 µM, the IC50 (U251) was 0.15 µM and the IC50 (LOX IMVI) was 0.014 µM. It also gave an IC50 (MALME-3M) of 0.19 µM, an IC50 (M14) of 0.24 µM and an IC50 (SK-MEL-2) of 0.18 µM. It also gave an IC50 (SK-MEL-28) of 0.016 µM, an IC50 (SK-MEL-5) of 0.12 µM and an IC50 (UACC-257) of 0.15 µM. The IC50 (UACC-62) was 0.19 µM, the IC50 (IGROV1) was 0.17 µM and the IC50 (OVCAR-5) was 0.45 µM. The IC50 (OVCAR-8) was 0.17 µM, the IC50 (786-0) was 0.06 µM and the IC50 (A498) was 0.19 µM. For the same compound, the IC50 (ACHN) was 0.14 µM, the IC50 (CAKI-1) was 0.44 µM and the IC50 (RXF 393) was 0.04 µM. The IC50 (SN12C) was 0.12 µM, the IC50 (TK-10) was 1.37 µM and the IC50 (UO-31) was 0.2 µM. It also gave an IC50 (PC-3) of 0.04 µM, an IC50 (DU-145) of 0.013 µM and an IC50 (MCF7) of 0.17 µM. It also gave an IC50 (NCI/ADR-RES) of 1.04 µM, an IC50 (MDA-MB-231/ATCC) of 0.13 µM and an IC50 (HS 578T) of 0.22 µM. The IC50 (MDA-MB-435) was 0.22 µM, the IC50 (BT-549) was 0.15 µM and the IC50 (T-47D) was 0.013 µM.
`COc1ccc(-n2c3cssc-3c(NC(=O)c3ccc(F)c(F)c3F)c2=O)c(OC)c1` [Compound R4] was tested, and the IC50 (Ovcar-3 cell line; [1]) was 0.046 µM.
In the case of `COc1ccc(-n2c3cssc-3c(NC(=O)c3cccs3)c2=O)c(OC)c1` [WBL-007], the IC50 (Ovcar-3 cell line; [1]) is reported as 0.028 µM.
For `COc1ccc(-n2c3cssc-3c(NC(=O)CCC(=O)O)c2=O)c(OC)c1` [BLI-031-2], the IC50 (H460; [2]) was over 50 µM.
`COc1ccc(-n2c3cssc-3c(NC(=O)c3ccc(CN4CCNCC4)cc3)c2=O)c(OC)c1` [Compound 0069] showed an IC50 (H460; [2]) of 0.04 µM.
